Experimental data taken from PubChem BioAssay (NCI).
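A five-concentration, 48-hour dose response in 96-well plates underlies each endpoint, interpolated linearly between surrounding concentrations. TGI: concentration producing complete growth inhibition.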

What was measured:
Experiment in all cases: inhibition of tumour cell growth, NCI panel, 48 h
[1] = system: SW-620 colon
[2] = system: MDA-MB-435
[3] = system: NCI-H23 lung
[4] = system: UO-31 renal
[5] = system: M14 melanoma
[6] = system: 786-0 renal
[7] = system: HOP-62 NSCLC
[8] = system: SK-OV-3 ovarian
[9] = system: HOP-92 NSCLC
[10] = system: HS 578T breast
[11] = system: U251 CNS
[12] = system: SF-295 CNS
[13] = system: UACC-257 melanoma
[14] = system: ACHN renal
[15] = system: OVCAR-8 ovarian
[16] = system: MALME-3M melanoma
[17] = system: HT29 colon
[18] = system: OVCAR-3 ovarian
[19] = system: SR leukemia
[20] = system: PC-3 prostate
[21] = system: DU-145 prostate
[22] = system: SNB-75 CNS
[23] = system: BT-549 breast
[24] = system: MOLT-4 leukemia
[25] = system: LOX IMVI melanoma
[26] = system: HL-60(TB) leukemia
[27] = system: CCRF-CEM leukemia
[28] = system: SF-539 CNS
[29] = system: RPMI-8226 leukemia
[30] = system: KM12 colon
[31] = system: SK-MEL-28 melanoma
[32] = system: MDA-MB-231 breast
[33] = system: HCT-116 colon
[34] = system: CAKI-1 renal
[35] = system: HCT-15 colon
[36] = system: MCF7 breast
[37] = system: OVCAR-5 ovarian
[38] = system: SK-MEL-5 melanoma
[39] = system: NCI/ADR-RES ovarian
[40] = system: RXF 393 renal
[41] = system: SF-268 CNS
[42] = system: SN12C renal
[43] = system: T-47D breast
[44] = system: HCC-2998 colon
[45] = system: MDA-N
[46] = system: IGROV1 ovarian
[47] = system: NCI-H522 lung
[48] = system: OVCAR-4 ovarian
[49] = system: SNB-19 CNS
[50] = system: A498 renal
[51] = system: UACC-62 melanoma
[52] = system: NCI-H226 lung
[53] = system: COLO 205 colon
[54] = system: EKVX NSCLC
[55] = system: K-562 leukemia
[56] = system: NCI-H460 lung
[57] = system: A549 NSCLC
[58] = system: SK-MEL-2 melanoma
[59] = system: TK-10 renal

CC1=C(O)C(=O)C(C2=C(O)C(=O)C(C)=C(O)C2=O)=C(O)C1=O
TGI [1]: > 100 µM | TGI [2]: > 100 µM | TGI [3]: > 100 µM | TGI [4]: > 100 µM | TGI [5]: > 100 µM | TGI [6]: > 100 µM | TGI [7]: > 100 µM | TGI [8]: > 100 µM | TGI [9]: 92.1 µM | TGI [10]: > 100 µM | TGI [11]: > 100 µM | TGI [12]: > 100 µM | TGI [13]: > 100 µM | TGI [14]: > 100 µM | TGI [15]: > 100 µM | TGI [16]: 46.6 µM | TGI [17]: > 100 µM | TGI [18]: > 100 µM | TGI [19]: > 100 µM | TGI [20]: > 100 µM | TGI [21]: > 100 µM | TGI [22]: > 100 µM | TGI [23]: > 100 µM | TGI [24]: > 100 µM | TGI [25]: > 100 µM | TGI [26]: > 100 µM | TGI [27]: > 100 µM | TGI [28]: > 100 µM | TGI [29]: > 100 µM | TGI [30]: > 100 µM | TGI [31]: > 100 µM | TGI [32]: > 100 µM | TGI [33]: > 100 µM | TGI [34]: > 100 µM | TGI [35]: > 100 µM | TGI [36]: > 100 µM | TGI [37]: > 100 µM | TGI [38]: 67.9 µM | TGI [39]: > 100 µM | TGI [40]: > 100 µM | TGI [41]: > 100 µM | TGI [42]: > 100 µM | TGI [43]: > 100 µM | TGI [44]: > 100 µM | TGI [45]: > 100 µM | TGI [46]: > 100 µM | TGI [47]: > 100 µM | TGI [48]: > 100 µM | TGI [49]: > 100 µM | TGI [50]: > 100 µM | TGI [51]: 54 µM | TGI [52]: > 100 µM | TGI [53]: > 100 µM | TGI [54]: > 100 µM | TGI [55]: > 100 µM | TGI [56]: > 100 µM

CC/C=C/C[C@H](O[Si](C)(C)C(C)(C)C)[C@H]1C[C@H]2O[C@H]([C@@H](O)C#C[Si](C)(C)C)C[C@H]2O1
TGI [1]: 37.7 µM | TGI [2]: 25.3 µM | TGI [3]: 24.7 µM | TGI [4]: 27.6 µM | TGI [5]: 24.7 µM | TGI [6]: 28 µM | TGI [7]: 30.4 µM | TGI [8]: 28.9 µM | TGI [9]: 22.4 µM | TGI [10]: 32.4 µM | TGI [11]: 30.2 µM | TGI [12]: 27.5 µM | TGI [13]: 23.2 µM | TGI [14]: 29 µM | TGI [15]: 27.9 µM | TGI [16]: 24.8 µM | TGI [17]: 24.4 µM | TGI [18]: 30.2 µM | TGI [19]: 7.66 µM | TGI [20]: 26.2 µM | TGI [21]: 28.3 µM | TGI [22]: 31 µM | TGI [23]: 33.4 µM | TGI [24]: > 48.6 µM | TGI [25]: 22.1 µM | TGI [26]: > 100 µM | TGI [27]: > 100 µM | TGI [29]: 37.6 µM | TGI [30]: 39.2 µM | TGI [31]: 29.7 µM | TGI [32]: 30.2 µM | TGI [33]: 24.5 µM | TGI [34]: 24.2 µM | TGI [35]: 26.6 µM | TGI [57]: 21.8 µM | TGI [36]: 20.9 µM | TGI [37]: 27.3 µM | TGI [38]: 20 µM | TGI [58]: 31.3 µM | TGI [39]: 26.3 µM | TGI [40]: 20.4 µM | TGI [41]: 27.4 µM | TGI [42]: 17.2 µM | TGI [43]: 23.2 µM | TGI [44]: 35.1 µM | TGI [45]: 24.8 µM | TGI [46]: 27.5 µM | TGI [59]: 30 µM | TGI [47]: 11.9 µM | TGI [48]: 23.1 µM | TGI [49]: 26.9 µM | TGI [50]: 32.8 µM | TGI [51]: 34.1 µM | TGI [52]: 20.6 µM | TGI [53]: 28.2 µM | TGI [54]: 25.9 µM | TGI [55]: > 44.3 µM | TGI [56]: 36 µM

CCOC(=O)C1C(O)CC2c3ccccc3-c3ccccc3C21 (stereo unspecified)
TGI [1]: > 100 µM | TGI [2]: > 100 µM | TGI [3]: > 100 µM | TGI [4]: > 100 µM | TGI [5]: > 100 µM | TGI [6]: 89 µM | TGI [7]: 91.2 µM | TGI [8]: 45.5 µM | TGI [9]: 75 µM | TGI [10]: 60.6 µM | TGI [11]: 75.5 µM | TGI [12]: > 100 µM | TGI [13]: > 100 µM | TGI [14]: > 100 µM | TGI [15]: 48.1 µM | TGI [16]: > 100 µM | TGI [17]: > 100 µM | TGI [18]: > 100 µM | TGI [19]: > 100 µM | TGI [20]: > 100 µM | TGI [21]: > 100 µM | TGI [22]: 67.1 µM | TGI [23]: > 100 µM | TGI [24]: > 100 µM | TGI [25]: > 100 µM | TGI [26]: > 100 µM | TGI [27]: > 100 µM | TGI [29]: > 100 µM | TGI [30]: > 100 µM | TGI [31]: > 100 µM | TGI [32]: > 100 µM | TGI [33]: 41.4 µM | TGI [34]: > 100 µM | TGI [35]: > 100 µM | TGI [57]: > 100 µM | TGI [36]: > 100 µM | TGI [37]: > 100 µM | TGI [38]: > 100 µM | TGI [58]: > 100 µM | TGI [39]: > 100 µM | TGI [40]: > 100 µM | TGI [41]: > 100 µM | TGI [42]: > 100 µM | TGI [43]: > 100 µM | TGI [45]: > 100 µM | TGI [46]: > 100 µM | TGI [59]: > 100 µM | TGI [47]: > 100 µM | TGI [48]: > 100 µM | TGI [49]: > 100 µM | TGI [50]: 68.9 µM | TGI [51]: > 100 µM | TGI [52]: 60.1 µM | TGI [53]: > 100 µM | TGI [54]: > 100 µM | TGI [55]: > 100 µM | TGI [56]: > 100 µM
